pIC50: −log10 of the molar value. Converted amounts (≈) assume the structure as drawn. Read-outs that look alike come from different tables or passages of the source.
Columns and labels:
[1] = test system: Bacillus subtilis; set-up: method as in PMID 30988267; conditions: cited from earlier work
[2] = test system: Mtb 331/88 (i.e., H37Rv); experiment: MIC, micro method in Šula's semisynthetic medium, drug-susceptible Mtb; format: cell-based, Mycobacterium tuberculosis; conditions: Mycobacterium tuberculosis, H37RV
[3] = test system: Mtb H37Ra pVV2; experiment: microbe, parasite or virus in culture; format: cell-based; conditions: Mycobacterium tuberculosis, 672 h, 28 days
[4] = test system: Mycobacterium kansasii 6509/96; experiment: MIC, micro method in Šula's semisynthetic medium, M. kansasii clinical isolate; format: cell-based; conditions: read-out: MIC M. kansasii 6509/96
[5] = test system: Mycobacterium avium 330/88; experiment: MIC, micro method in Šula's semisynthetic medium, M. avium; format: cell-based
[6] = test system: Mtb H37Rv; experiment: Metabolic labeling with 14C acetate and TLC lipid analysis; conditions: 10× and 100× MIC, 14C acetate, 24 h
[7] = test system: Mtb H37Ra pVV2-dprE1/dprE2; experiment: microbe, parasite or virus in culture; format: cell-based; conditions: Mycobacterium tuberculosis, 672 h, 28 days
[8] = test system: Mtb H37Ra pVV2-dprE2; experiment: microbe, parasite or virus in culture; format: cell-based; conditions: Mycobacterium tuberculosis, 672 h, 28 days
[9] = test system: Mtb; set-up: method as in PMID 33462533; conditions: cited from earlier work
[10] = test system: HepG2 cells; experiment: Cytotoxicity on HepG2 cell line (CellTiter 96); format: cell-based, human; conditions: Homo sapiens, HepG2, 24 h, read-out: IC50 HepG2
[11] = test system: Danio rerio embryos; experiment: Fish embryo test (FET); format: in vivo; conditions: for mortality: as early as 48 h; for lethality: end of the 96 hours; for observed lethal endpoints: 0.001–100 µM, 96-hour exposure; for embryo coagulation, share of all observed endpoints: whole exposure period
Procedure: Fish maintenance. A day before the experiment, adult wild-type zebrafish (Danio rerio) were transferred into plastic spawning cages at the end of the 14-hour photoperiod. All fish were spawned at the onset of the following photoperiod. Fertilized eggs were collected within 30 minutes post-fertilization and inspected for health state and developmental stage using a stereomicroscope before exposure to 5g and 4h. Tested compounds were dissolved in DMSO; its concentration in 1 mM stock solution was 0.5%.
Fish embryo test (FET). Fish embryo tests were carried out using six different concentrations (0.001, 0.01, 0.1, 1, 10, and 100 μM) of each of the tested substances and controls over 96 hours at a constant temperature of 26.9°C (±1°C) under semi-static experimental set-up. The used medium was E3 according to Cold Spring Harbor Protocols (5 mM NaCl, 0.17 mM KCl, 0.33 mM CaCl2, 0.33 mM MgSO4). Each FET consists of 24 embryos per concentration, where each embryo is considered an individual replicate. Before the tests, all wells in the testing culture well plates were saturated by overnight incubation with corresponding concentrations of 5g and 4h. Before loading the embryos into the well plates, all solutions were replaced by freshly aerated ones with corresponding concentrations or controls. All solutions in the well plates were changed again after 48 hours of exposure to minimize a potential reduction in oxygen levels and compound concentration. Fish embryos were inspected and scored for mortality, morphological changes, or hatching success rates at 24-, 48-, 72-, and 96-hours post-exposure (hpe) under an inverted microscope (Olympus IX71; Olympus Czech Group, s.r.o., Czech Republic). […] In comparison, > 90% of the embryos in the positive control (3,4-dichloroaniline) were considered dead at the end of the 96-hour exposure. Morphological endpoints in our analysis were: (1) coagulation of fertilised eggs or developing embryos; (2) lack of somite formation; (3) lack of detachment of the tail bud from the yolk sac; (4) lack of heartbeat or heart defects (oedema); (5) malformations of body parts (head and tail region); (6) growth retardation. All morphological endpoints were used to determine the mortality (a positive endpoint means the embryo was considered dead).
For both compounds, the negative controls involved pure E3 medium and E3 medium containing 0.05% DMSO.

[12] = test system: Staphylococcus aureus; set-up: method as in PMID 30988267; conditions: cited from earlier work
[13] = 330/88, 336 h, read-out: MIC M. avium 330/88
[14] = 330/88, 504 h, read-out: MIC M. avium 330/88

For `O=C(Nc1nnc(COc2ccccc2)o1)c1ccc([N+](=O)[O-])cc1` [X], the MIC [1] is given as 780 µg/mL (≈ 2290 µM).

In the case of `CCCCCCCCCCCCNC(=S)NNC(=O)c1cc([N+](=O)[O-])cc([N+](=O)[O-])c1` [Compound 4s, 2-(3,5-Dinitrobenzoyl)-N-dodecylhydrazine-1-carbothioamide], the MIC ([2]; 336 h, 14 days) was 2 µM (≈ 0.907 µg/mL), the MIC ([2]; 504 h, 21 days) was 2 µM (≈ 0.907 µg/mL) and the MIC [3] was 2 µM (≈ 0.907 µg/mL). The MIC ([4]; 6509/96, 168 h) was 1 µM (≈ 0.454 µg/mL), the MIC ([4]; 6509/96, 336 h) was 1 µM (≈ 0.454 µg/mL) and the MIC ([4]; 6509/96, 504 h) was 2 µM (≈ 0.907 µg/mL). For the same compound, the MIC [5, 13] was 16 µM (≈ 7.26 µg/mL), the MIC [5, 14] was 16 µM (≈ 7.26 µg/mL) and the “lipid profile of treated cells vs untreated cells” value (“lipid profile … vs untreated cells” below) [6] was “accumulation of TMM and TDM”. It also gave an MIC [7] greater than 4 µM and an MIC [8] of 2 µM (≈ 0.907 µg/mL).

Compound `CCCCCCCCCCCCNc1nnc(-c2cc([N+](=O)[O-])cc([N+](=O)[O-])c2)s1` [Compound 5s, 5-(3,5-Dinitrophenyl)-N-dodecyl-1,3,4-thiadiazol-2-amine] has an MIC ([2]; 336 h, 14 days) of 1 µM (≈ 0.436 µg/mL), an MIC ([2]; 504 h, 21 days) of 1 µM (≈ 0.436 µg/mL) and an MIC [3] of less than 0.1 µM. For the same compound, the MIC ([4]; 6509/96, 168 h) was 1 µM (≈ 0.436 µg/mL), the MIC ([4]; 6509/96, 336 h) was 1 µM (≈ 0.436 µg/mL) and the MIC ([4]; 6509/96, 504 h) was 1 µM (≈ 0.436 µg/mL). The MIC [5, 13] was 64 µM (≈ 27.9 µg/mL), the MIC [5, 14] was 125 µM (≈ 54.4 µg/mL) and the “lipid profile … vs untreated cells” value [6] was “accumulation of TMM and TDM”. For the same compound, the MIC [7] was 0.5 µM (≈ 0.218 µg/mL) and the MIC [8] was less than 0.1 µM.

For `O=c1nc(N2CCN(CC3CCCCC3)CC2)sc2c([N+](=O)[O-])cc(C(F)(F)F)cc12` [macozinone], the “MIC for Mtb” value [9] is listed as 0.002 µM.

Work on `CCCCCCCNc1nnc(-c2cc([N+](=O)[O-])cc([N+](=O)[O-])c2)o1` [Compound 5g, 5-(3,5-Dinitrophenyl)-N-heptyl-1,3,4-oxadiazol-2-amine] yielded a pIC50 [10] of less than 4.00, an MIC ([2]; 336 h, 14 days) of no more than 0.03 µM and an MIC ([2]; 504 h, 21 days) of no more than 0.03 µM. For the same compound, the MIC [3] was less than 0.06 µM, the MIC ([4]; 6509/96, 168 h) was no more than 0.03 µM and the MIC ([4]; 6509/96, 336 h) was 0.06 µM (≈ 0.021 µg/mL). For the same compound, the MIC ([4]; 6509/96, 504 h) was 0.125 µM (≈ 0.0437 µg/mL), the MIC [5, 13] was 4 µM (≈ 1.4 µg/mL) and the MIC [5, 14] was 8 µM (≈ 2.79 µg/mL). For the same compound, the “lipid profile … vs untreated cells” value [6] was “accumulation of TMM and TDM”, the MIC [7] was greater than 0.3 µM and the MIC [8] was less than 0.06 µM. For the same compound, the “mortality at 1 µM” value [11] was “no significant mortality”, the mortality ([11]; 10 µM) was 100% and the mortality ([11]; 100 µM) was 100%. The lethality ([11]; 100 µM) was 100%, the observed lethal endpoints [11] was “pericardial oedema at lower concentrations and by growth retardation at higher concentrations” and the “embryo coagulation, share of all observed endpoints” value [11] was greater than 25%.

`CCCCCCCCNC(=O)NNC(=O)c1cc([N+](=O)[O-])cc([N+](=O)[O-])c1` [Compound 4h, 2-(3,5-Dinitrobenzoyl)-N-octylhydrazine-1-carboxamide] showed a pIC50 [10] of 3.87, an MIC ([2]; 336 h, 14 days) of 0.25 µM (≈ 0.0953 µg/mL) and an MIC ([2]; 504 h, 21 days) of 0.5 µM (≈ 0.191 µg/mL). For the same compound, the MIC [3] was less than 0.5 µM, the MIC ([4]; 6509/96, 168 h) was 1 µM (≈ 0.381 µg/mL) and the MIC ([4]; 6509/96, 336 h) was 1 µM (≈ 0.381 µg/mL). For the same compound, the MIC ([4]; 6509/96, 504 h) was 1 µM (≈ 0.381 µg/mL), the MIC [5, 13] was 125 µM (≈ 47.7 µg/mL) and the MIC [5, 14] was 250 µM (≈ 95.3 µg/mL). For the same compound, the MIC ([5]; 330/88, read-out: MIC M. avium) was 125 to 250 µM (≈ 47.7 to 95.3 µg/mL), the “lipid profile … vs untreated cells” value [6] was “accumulation of TMM and TDM” and the MIC [7] was greater than 2.5 µM. For the same compound, the MIC [8] was less than 0.5 µM, the “mortality at 1 µM” value [11] was “no significant mortality” and the mortality ([11]; 10 µM) was 100%. For the same compound, the mortality ([11]; 100 µM) was 100%, the lethality ([11]; 100 µM) was 100% and the observed lethal endpoints [11] was “embryo coagulation and growth retardation”. The “embryo coagulation, share of all observed endpoints” value [11] was greater than 35%.

For `Cc1ccc(C(=O)Nc2nnc(-c3ccc(C)cc3)o2)cc1` [VIII], the MIC [12] is listed as 1560 µg/mL (≈ 5320 µM).

In the case of `Cc1ccc(-c2nnc(NC(=O)c3ccc([N+](=O)[O-])cc3)o2)cc1` [IX], the MIC [1] is listed as 780 µg/mL (≈ 2410 µM).
